Columns and labels:
[1] = tested on: HepG2 cells; assay: Oil Red O lipid content in OA-induced high-fat HepG2 cells; conditions: 1 mM OA-induced HepG2 cells, 50 μM, 24 h
Description: For the lipid content assay: The cells were treated with 1 mM oleic acid (OA). […] The absorbance value was recorded at 530 nm using a microplate absorbance reader. Isopropanol solvent was used as a control ([14]).

[2] = tested on: Pparγ; assay: Western blot of PPARγ protein in Caco-2/HepG2 co-culture; type: cell-based, human; conditions: OA-induced co-culture, 50 μM, 24 h; compared vs. OA
Description: (§1) Cells from the co-culture model were lysed and supernatants were collected. The protein concentrations were determined using the BCA Protein Quantitation Kit. Then electrophoresis of samples was conducted using a SDS-PAGE kit (Beyotime Biotechnology) following the manufacturer’s instructions and transferred to poly-vinylidene difluoride (PVDF) membrane. Next, membranes were incubated in 5% nonfat milk to block non-specific antibody binding for 30 min at room temperature and followed by incubating with primary antibodies and secondary antibodies. Chemiluminescence based-images of the blots were acquired using ImageQuant LAS 500 system (GE, United States). Protein bands were quantified using ImageJ (version 1.53a) software. The changes in expression levels of these proteins detected finally are used to evaluate the sample’s effect on lipid metabolism.

[3] = tested on: Caco-2/HepG2 co-culture model; assay: Lipid metabolites and AST/ALT in OA-induced Caco-2/HepG2 co-culture model; type: cell-based, human; conditions: for reduction in TC content: HepG2 on BL side after transport by Caco-2, 50 μM
Description: Caco-2 and HepG2 cells were cultured separately at 37°C with 5% CO2 in DMEM medium containing 10% fetal bovine serum, 50 U/mL penicillin, and 50 μg/mL streptomycin. Caco-2 cells were cultured in 96-well plates for 24 h and harvested with trypsin–EDTA to seed to the AP side (1 × 10^5 cells/mL, 500 μL) in monolayers. 1,500 μL of Minimum Essential Medium (MEM) was simultaneously added to the BL compartment. HepG2 cells were seeded to the BL compartment at the day 15. The total culture period was 18 d.
The co-culture cells were collected by the previous method from the above mentioned, and the cells were lysed on ice for 30 min using IP cell lysis buffer (20 mM Tris pH 7.5, 200 mM NaCl, 10% glycerol, 0.2 mM DTT, 0.1 mM EDTA, 1 mM protease inhibitor). The contents of TG, T-CHO, LDL-C, HDL-C, AST, and ALT from HepG2 were measured following the test kit instructions. Intracellular protein content was measured to calibrate the levels of relevant metabolites using the BCA Protein Quantitation Kit (Beyotime Biotechnology).

[4] = tested on: Fabp4; assay: Western blot of Fabp4 protein in Caco-2/HepG2 co-culture; type: cell-based, human; conditions: OA-induced co-culture, 50 μM, 24 h; compared vs. OA
Description: as §1

[5] = target: MRP2 (Homo sapiens, UniProt Q92887); assay: Bidirectional Caco-2 transport with probenecid (MRP inhibitor); conditions: for ER (efflux rate) / Papp (AP → BL) / Papp (BL → AP): 50 μmol/L, + Prob (probenecid 1 mM); for substrate of MRP2: bidirectional assay with probenecid 1 mM
Sequence of MRP2 (Q92887 whole entry): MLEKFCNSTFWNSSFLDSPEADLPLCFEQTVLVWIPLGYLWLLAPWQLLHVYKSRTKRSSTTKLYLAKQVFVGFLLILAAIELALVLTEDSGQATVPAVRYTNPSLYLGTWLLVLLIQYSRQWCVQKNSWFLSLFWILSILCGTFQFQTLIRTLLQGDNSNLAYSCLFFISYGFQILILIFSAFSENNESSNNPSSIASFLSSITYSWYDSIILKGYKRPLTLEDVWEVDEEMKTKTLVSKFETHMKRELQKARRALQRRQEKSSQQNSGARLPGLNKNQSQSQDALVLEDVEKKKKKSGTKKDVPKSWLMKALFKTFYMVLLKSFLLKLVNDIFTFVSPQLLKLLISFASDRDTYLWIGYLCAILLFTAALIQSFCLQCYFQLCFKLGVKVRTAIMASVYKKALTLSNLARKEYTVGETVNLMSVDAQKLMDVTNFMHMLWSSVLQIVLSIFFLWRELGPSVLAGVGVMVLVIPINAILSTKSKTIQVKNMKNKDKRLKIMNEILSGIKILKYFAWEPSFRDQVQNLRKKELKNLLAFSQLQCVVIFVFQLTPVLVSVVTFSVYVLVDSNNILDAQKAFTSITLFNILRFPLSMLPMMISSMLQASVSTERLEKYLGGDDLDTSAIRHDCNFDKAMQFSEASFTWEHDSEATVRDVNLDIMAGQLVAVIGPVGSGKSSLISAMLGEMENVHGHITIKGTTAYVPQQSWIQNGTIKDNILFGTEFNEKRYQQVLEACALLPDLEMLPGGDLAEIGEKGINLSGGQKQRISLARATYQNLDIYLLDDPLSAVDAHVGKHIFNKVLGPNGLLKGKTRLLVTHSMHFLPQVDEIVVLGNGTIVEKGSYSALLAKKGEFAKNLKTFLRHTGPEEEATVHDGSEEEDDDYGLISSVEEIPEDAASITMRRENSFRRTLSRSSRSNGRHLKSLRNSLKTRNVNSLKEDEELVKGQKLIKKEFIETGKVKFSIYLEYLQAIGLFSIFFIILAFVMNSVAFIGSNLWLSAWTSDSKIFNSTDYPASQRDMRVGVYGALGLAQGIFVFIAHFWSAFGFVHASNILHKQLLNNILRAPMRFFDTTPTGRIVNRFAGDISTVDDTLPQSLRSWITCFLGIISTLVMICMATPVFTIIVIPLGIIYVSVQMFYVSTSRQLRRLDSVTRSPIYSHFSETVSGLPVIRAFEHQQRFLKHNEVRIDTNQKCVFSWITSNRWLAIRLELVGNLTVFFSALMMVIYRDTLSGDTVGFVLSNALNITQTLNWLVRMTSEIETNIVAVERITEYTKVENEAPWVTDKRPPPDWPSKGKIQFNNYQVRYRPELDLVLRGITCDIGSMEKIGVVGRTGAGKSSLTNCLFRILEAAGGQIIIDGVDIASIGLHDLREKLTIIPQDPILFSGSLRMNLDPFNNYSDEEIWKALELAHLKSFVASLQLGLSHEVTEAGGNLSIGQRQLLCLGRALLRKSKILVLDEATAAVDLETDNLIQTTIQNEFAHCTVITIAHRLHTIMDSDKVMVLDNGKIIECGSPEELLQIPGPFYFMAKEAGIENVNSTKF
Description: (§2) Transport assay: The monolayers were pre-incubated at 37°C for 30–40 min with 5% CO2 in a pre-warmed media, which contained Hanks Balanced Salt solution (HBSS, BioWhittaker), HEPES buffer and D-glucose. For the transport of apical (AP) side to basolateral (BL) side, the media was removed after pre-incubation and 0.5 mL of polyphenols was added to the AP side. 1.5 mL of HBSS were added to the BL side. Then 200 μL of samples were taken from the BL side at 30, 60, 90, 120 and 150 min, respectively. The BA sample volumes removed were therewith replenished with same volumes of the HBSS solution. For the transport of BL to AP, polyphenols were added to BL and samples were taken from AP at a series of time points as above mentioned. The TEER was measured from the beginning to the end of the assay.
(§3) Caco-2 cells (1×10^5 cells/well) were cultured in 96-well plates for 24 h until differentiation, with a TEER value exceeding 400 Ω·cm^2. Bidirectional transport experiments from AP to BL or from BL to AP were performed as mentioned in the transport assay. The apparent permeability coefficients, cumulative release and initial concentrations and efflux rates were determined. In brief, the total transport time was set to 150 min. For AP to BL transport, 0.5 mL of polyphenols were added to AP with 1.5 mL of HBSS to the BL side. 200 μL of samples were collected from BL at different time points (30, 60, 90, 120, and 150 min). For BL to AP transport, polyphenols were added to BL and samples were collected from AP as the mentioned above.

[6] = target: P-gp (Homo sapiens, UniProt P08183); assay: Bidirectional Caco-2 transport with verapamil (P-gp inhibitor); conditions: for ER (efflux rate) / Papp (AP → BL) / Papp (BL → AP): 50 μmol/L, + Ver (verapamil 100 μM); for substrate of P-gp: bidirectional assay with verapamil 100 μM
Sequence of P-gp (P08183 whole entry): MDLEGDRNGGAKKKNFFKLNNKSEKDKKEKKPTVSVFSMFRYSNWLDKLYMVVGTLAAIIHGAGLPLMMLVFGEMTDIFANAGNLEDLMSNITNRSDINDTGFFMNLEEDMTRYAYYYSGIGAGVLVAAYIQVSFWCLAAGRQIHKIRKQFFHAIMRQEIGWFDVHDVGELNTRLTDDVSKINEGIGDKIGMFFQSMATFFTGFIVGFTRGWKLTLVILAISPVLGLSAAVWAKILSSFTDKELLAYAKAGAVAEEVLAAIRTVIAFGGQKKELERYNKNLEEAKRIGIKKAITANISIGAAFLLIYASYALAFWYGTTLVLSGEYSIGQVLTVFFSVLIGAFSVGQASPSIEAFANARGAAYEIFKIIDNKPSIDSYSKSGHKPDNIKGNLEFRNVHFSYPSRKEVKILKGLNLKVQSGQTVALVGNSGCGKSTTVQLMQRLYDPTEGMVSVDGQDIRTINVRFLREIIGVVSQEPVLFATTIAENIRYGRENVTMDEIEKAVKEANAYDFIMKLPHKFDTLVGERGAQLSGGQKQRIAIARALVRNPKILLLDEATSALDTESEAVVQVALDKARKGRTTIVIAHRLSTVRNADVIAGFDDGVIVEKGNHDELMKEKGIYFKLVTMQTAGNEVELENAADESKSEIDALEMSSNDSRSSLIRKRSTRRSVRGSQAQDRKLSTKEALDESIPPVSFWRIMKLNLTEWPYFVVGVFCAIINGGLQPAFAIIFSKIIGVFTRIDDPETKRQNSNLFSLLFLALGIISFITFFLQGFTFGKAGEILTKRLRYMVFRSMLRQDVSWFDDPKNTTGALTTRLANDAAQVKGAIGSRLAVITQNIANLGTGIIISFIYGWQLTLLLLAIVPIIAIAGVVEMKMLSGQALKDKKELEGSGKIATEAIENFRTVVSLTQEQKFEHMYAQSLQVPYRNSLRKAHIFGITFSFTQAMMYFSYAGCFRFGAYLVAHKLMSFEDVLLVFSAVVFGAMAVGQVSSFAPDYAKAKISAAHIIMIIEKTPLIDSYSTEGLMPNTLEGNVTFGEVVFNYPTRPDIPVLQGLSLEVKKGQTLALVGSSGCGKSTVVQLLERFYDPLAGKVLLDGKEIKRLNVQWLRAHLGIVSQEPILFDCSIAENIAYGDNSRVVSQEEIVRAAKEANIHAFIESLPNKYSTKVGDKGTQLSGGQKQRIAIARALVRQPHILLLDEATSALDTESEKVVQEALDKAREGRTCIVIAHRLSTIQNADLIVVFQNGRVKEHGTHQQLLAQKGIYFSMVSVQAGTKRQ
Description: as §2, §3

Structure (SMILES)	decrease of lipid absorption rate (Oil Red O lipid droplets) [1]	PPARγ protein expression level (densitometry) [2]	reduction of ALT level [3]	reduction of AST level [3]	reduction in TC content [3]	Fabp4 protein expression level (densitometry) [4]	ER (efflux rate) ([5]; 30 min)	Papp (AP → BL) ([5]; 30 min)	Papp (BL → AP) ([5]; 30 min)	ER (efflux rate) ([5]; 60 min)	Papp (AP → BL) ([5]; 60 min)	Papp (BL → AP) ([5]; 60 min)	ER (efflux rate) ([5]; 90 min)	Papp (BL → AP) ([5]; 90 min)	ER (efflux rate) ([5]; 120 min)	Papp (AP → BL) ([5]; 120 min)	Papp (BL → AP) ([5]; 120 min)	ER (efflux rate) ([5]; 150 min)	Papp (AP → BL) ([5]; 150 min)	Papp (BL → AP) ([5]; 150 min)	other results
OC[C@H]1O[C@@H](Oc2cc3c(O)cc(O)cc3[o+]c2-c2ccc(O)c(O)c2)[C@H](O)[C@@H](O)[C@@H]1O [C3G, Cyanidin-3-O-glucoside]	22.35%	1.03	not observed	not observed	7.69%	1.23	0.63	8.47 ± 0.39 ×10^−5 cm /s	5.31 ± 0.72 ×10^−5 cm /s	0.61	4.55 ± 0.09 ×10^−5 cm /s	2.79 ± 0.37 ×10^−5 cm /s	0.52	1.62 ± 0.08 ×10^−5 cm /s	0.53	2.45 ± 0.03 ×10^−5 cm /s	1.29 ± 0.09 ×10^−5 cm /s	0.56	1.83 ± 0.09 ×10^−5 cm /s	1.06 ± 0.04 ×10^−5 cm /s	reduction of OA-induced LDL-C increase ([3]; 50 μM): did not change; Papp (AP → BL) ([5]; 90 min): 3.12 ± 0.02 ×10^−5 cm /s; substrate of MRP2 [5]: not substrates; ER (efflux rate) ([6]; 30 min): 0.48; Papp (AP → BL) ([6]; 30 min): 11.4 ± 0.49 ×10^−5 cm /s; Papp (BL → AP) ([6]; 30 min): 5.49 ± 0.66 ×10^−5 cm /s; ER (efflux rate) ([6]; 60 min): 0.54; Papp (AP → BL) ([6]; 60 min): 5.73 ± 0.21 ×10^−5 cm /s; Papp (BL → AP) ([6]; 60 min): 3.07 ± 0.2 ×10^−5 cm /s; ER (efflux rate) ([6]; 90 min): 0.51; Papp (AP → BL) ([6]; 90 min): 4.05 ± 0.12 ×10^−5 cm /s; Papp (BL → AP) ([6]; 90 min): 2.09 ± 0.03 ×10^−5 cm /s; ER (efflux rate) ([6]; 120 min): 0.54; Papp (AP → BL) ([6]; 120 min): 3.16 ± 0.17 ×10^−5 cm /s; Papp (BL → AP) ([6]; 120 min): 1.71 ± 0.15 ×10^−5 cm /s; ER (efflux rate) ([6]; 150 min): 0.51; Papp (AP → BL) ([6]; 150 min): 2.47 ± 0.14 ×10^−5 cm /s; Papp (BL → AP) ([6]; 150 min): 1.21 ± 0.28 ×10^−5 cm /s; substrate of P-gp [6]: not substrates
O.Oc1cc(O)c2c(c1)O[C@H](c1ccc(O)c(O)c1)[C@@H](O)C2 [catechin]	31.24%	1.08	not observed	not observed	7.69%	1.23	0.58	9.19 ± 0.53 ×10^−5 cm /s	5.36 ± 0.52 ×10^−5 cm /s	0.56	4.46 ± 0.36 ×10^−5 cm /s	2.50 ± 0.27 ×10^−5 cm /s	0.52	1.64 ± 0.37 ×10^−5 cm /s	0.51	2.48 ± 0.19 ×10^−5 cm /s	1.27 ± 0.27 ×10^−5 cm /s	0.48	1.93 ± 0.49 ×10^−5 cm /s	0.98 ± 0.34 ×10^−5 cm /s	substrate of MRP2 [5]: not substrates; ER (efflux rate) ([6]; 30 min): 0.57; Papp (AP → BL) ([6]; 30 min): 11.2 ± 0.23 ×10^−5 cm /s; Papp (BL → AP) ([6]; 30 min): 6.38 ± 0.37 ×10^−5 cm /s; ER (efflux rate) ([6]; 60 min): 0.57; Papp (AP → BL) ([6]; 60 min): 6.02 ± 0.37 ×10^−5 cm /s; Papp (BL → AP) ([6]; 60 min): 3.45 ± 0.29 ×10^−5 cm /s; ER (efflux rate) ([6]; 90 min): 0.51; Papp (AP → BL) ([6]; 90 min): 3.98 ± 0.31 ×10^−5 cm /s; Papp (BL → AP) ([6]; 90 min): 2.05 ± 0.56 ×10^−5 cm /s; ER (efflux rate) ([6]; 120 min): 0.52; Papp (AP → BL) ([6]; 120 min): 3.25 ± 0.52 ×10^−5 cm /s; Papp (BL → AP) ([6]; 120 min): 1.68 ± 0.29 ×10^−5 cm /s; ER (efflux rate) ([6]; 150 min): 0.52; Papp (AP → BL) ([6]; 150 min): 2.54 ± 0.17 ×10^−5 cm /s; Papp (BL → AP) ([6]; 150 min): 1.32 ± 0.34 ×10^−5 cm /s; substrate of P-gp [6]: not substrates

Reference: article PMC12402003 (Frontiers in Nutrition, 2025)
